Active and inactive are the calls of the source. The rule behind the calls is not given here.
Experiments:
Cytotoxicity = test: inhibitors of PAF-induced NFkB signaling in CF airway cells, dose response, cell-based, uHTS hits, panel, cytotoxicity readout (AID 624344); conditions: CF bronchial epithelial cells, mean of runs
[1] = as above; conditions: CF bronchial epithelial cells, PAF-induced NFkB reporter inhibition; with PAF, mean of runs

Row | SMILES | IC50 (Cytotoxicity) | IC50 [1]
1 | COc1ccc2c(c1OC)C(=O)OC2Nc1nc(-c2ccccc2)cs1 (stereo not given) | 32.7 µM | 0.66 µM
2 | COc1ccc(-c2nc(NC(=O)c3ccc(OCC(=O)Nc4ccc(F)cc4)c(OC)c3)sc2C)cc1 | 16.6 µM | 4.72 µM
3 | Cc1ccc(-n2nnnc2Sc2ccc(S(=O)(=O)NCCN(C)C)cc2[N+](=O)[O-])cc1 | 1.99 µM | 2.65 µM
4 | COC(=O)N1C(=O)[C@@](c2ccccc2)(C(C)C)N1C(=O)OC | 38.7 µM | 4.26 µM
5 | NC(=Nc1ccccc1)NN=Cc1c[nH]c2ccccc12 | 23.3 µM | inactive
6 | COc1cc2c(Cc3ccccc3)cncc2cc1O | 36.8 µM | 6.42 µM
7 | CC(C)Nc1ncnc2ccc(Br)cc12 | 10.8 µM | 0.706 µM
8 | CCc1cc2c(Sc3nc4ccccc4s3)ncnc2s1 | 1.74 µM | 1.03 µM
9 | O=C(CC12CC3CC(CC(C3)C1)C2)Nc1nncs1 | 54.5 µM (inactive) | inactive
10 | O=[N+]([O-])c1cc([N+](=O)[O-])c2oc(-c3ccccc3)c(Br)c2c1O | 4.56 µM | 2.3 µM
11 | O=c1[nH]nc(Sc2ncnc3sccc23)n1CCc1ccccc1 | 19 µM | 3.07 µM
12 | C/C(=N/NC(=O)c1cccs1)c1ccc(NC(=O)COc2ccc(Cl)cc2)cc1 | 26.5 µM | inactive
13 | CC(=O)Nc1ccc(NC(=O)COC(=O)c2c3c(nc4ccccc24)CCN(Cc2ccccc2)C3)cc1 | 4.16 µM | 5.27 µM
14 | CCCN(CCC)c1ncnc2nc[nH]c12 | 57.3 µM (inactive) | 1.32 µM
15 | CC(=O)Nc1ccc(-c2ccnc3c2CC(C(=O)NCc2ccccc2)O3)cc1 (stereo not given) | > 79 µM (inactive) | > 79 µM (inactive)
16 | CCn1c2ccccc2c2cc(/C=N/O)ccc21 | 46.4 µM | 3.38 µM
17 | Cc1ccnc(NC(=O)CSc2cc(=O)n(C)c3ccccc23)c1 | 39.4 µM | 7.95 µM
18 | Oc1ccc(C[C@H]2CNC(=S)N2CC2CCCN2C[C@H](Cc2ccc(O)cc2)N2C[C@H](Cc3ccc(O)cc3)N(CC3CCCCC3)C2=S)cc1 (stereo not given in full) | 15.4 µM | 10.3 µM
19 | O=C(NCc1cccnc1)/C(=C\c1ccc(-c2cccc(Cl)c2)o1)S(=O)(=O)c1ccccc1 | 5.33 µM | 1.71 µM
20 | C=CC[C@@H](CC(=O)N(CCO)Cc1ccccc1)C(=O)NC[C@H](OC(=O)[C@@H](CC=C)Cc1ccc(F)cc1)c1ccccc1 | 4.23 µM | 4.05 µM

Row | SMILES | IC50 (Cytotoxicity) | IC50 [1]
21 | COc1cccc2c(SCC(=O)N/N=C/c3ccccc3)cc(C)nc12 | 38.6 µM | 6.95 µM
22 | NC(=O)c1sc2nc3c(c(-c4ccccc4)c2c1N)CCC3 | 60.1 µM (inactive) | 1.17 µM
23 | COc1ccc(-c2oc3ccc(-c4ccc5c(c4)OCO5)cc3c2C#CC2(O)CCCCC2)cc1 | 41.3 µM | 2.67 µM
24 | COc1ccc(-c2cc(=O)oc3cc(OC(=O)C4CCCCC4)c(Cl)cc23)cc1 | 61.6 µM (inactive) | 0.302 µM
25 | CCCn1c(-c2nonc2N)nc2ccccc21 | 31.6 µM | 4.28 µM
26 | CC1=C(C(=O)OCc2ccc3c(c2)OCO3)C(c2cccc([N+](=O)[O-])c2)NC(=O)N1 (stereo not given) | > 79 µM (inactive) | 2.71 µM
27 | COc1ccc(-c2cc(=O)oc3cc(OC(=O)C4CCCCC4)ccc23)cc1 | > 79 µM (inactive) | 2.37 µM
28 | O=[N+]([O-])c1ccc(Oc2ccc(F)cc2)c2ccncc12 | 42.4 µM | 1.82 µM
29 | Cc1ccc(CCC(=O)Nc2ncc(Cc3cc(Cl)ccc3Cl)s2)o1 | 13.2 µM | 19.2 µM
30 | CC(=O)c1ccc(-c2cnc3c(NC=O)cc(-c4ccc(C(=O)NC5CC5)cc4)cn23)cc1 | 27.4 µM | 4.25 µM
31 | Brc1cccc(CSc2nnc(-c3ccncc3)o2)c1 | > 79 µM (inactive) | 6.88 µM
32 | C=C1C(=O)OC2CC3(C)OC3CCC(C)=CC(OC(C)=O)C12 (stereo not given) | 2.35 µM | 2.27 µM
33 | COC(=O)c1ccc(-c2ccc(OC)c([C@H]3[C@H]4C=CC[C@@H](C)[C@@H]4C(=O)N3Cc3ccccc3)c2)cc1 | 29.8 µM | 2.4 µM
34 | COc1ccc2cc3c(N)nn(C(=O)c4ccc(F)cc4)c3nc2c1 | 36.6 µM | 1.29 µM
35 | Cc1ccc(CNc2ncnc3ccc(-c4ccoc4C)cc23)o1 | 14.8 µM | 0.381 µM
36 | CC(=O)Oc1ccc(N(C(C)=O)S(=O)(=O)c2ccc(Cl)cc2)c2ccccc12 | 22.8 µM | 7.37 µM
37 | Cn1cccc1C(=O)NC(=O)COC(=O)c1ccc(S(C)(=O)=O)c([N+](=O)[O-])c1 | 5.85 µM | 5.26 µM
38 | FC(F)(F)c1nnc2c(Sc3ccc(Cl)cc3)nc3ccccc3n12 | 1.03 µM | 0.859 µM
39 | NC(=O)N/N=C/c1c(Sc2nnnn2-c2ccccc2)nc2ccccn2c1=O | 6.87 µM | 0.653 µM
40 | CC1CCN(CC(CS(=O)(=O)c2ccc([N+](=O)[O-])cc2)N2CCC(C)CC2)CC1 (stereo not given) | 3.57 µM | 2.44 µM

Row | SMILES | IC50 (Cytotoxicity) | IC50 [1]
41 | CCCCN(CCCC)c1ncnc2nc[nH]c12 | 41.4 µM | 5.64 µM
42 | Cc1cccc(C(=O)N[C@H](C(=O)Nc2nc3ccccc3[nH]2)C(C)C)c1 | 19.6 µM | 14.9 µM
43 | CCc1c(C)nc2ccc(Br)cc2c1SCCC#N | 24.8 µM | 3.12 µM
44 | O=C(NNC(=S)Nc1cccc(C(F)(F)F)c1)c1cccc(Cl)c1 | 9.54 µM | 4.81 µM
45 | CCc1ccc(Nc2n[n+](-c3ccccc3)c(-c3c(Cl)cccc3Cl)s2)cc1 | 6.29 µM | 5.47 µM
46 | C[C@@H](NC(=O)c1coc(=O)c(Br)c1)c1ccccc1 | 4.95 µM | 4.1 µM
47 | COc1cc(-c2cnc3c(NC=O)cc(-c4ccc(C)cc4)cn23)cc(OC)c1OC | 22 µM | > 79 µM (inactive)
48 | Cc1ccc(Nc2nc3nonc3[nH]c2=O)cc1Cl | 15.1 µM | 4.7 µM
49 | COc1cccc(Nc2ncnc3ccc(Br)cc23)c1 | 9.61 µM | 1.08 µM
50 | CN(C)C(=O)c1cccc(-c2cnc3sc(NCc4ccc5c(c4)OCO5)nn23)c1 | 46.5 µM | 1.69 µM
51 | CCN1CCN(Cc2ccc(NC(=O)c3ccc(C)c(NC(=O)C(=O)c4c[nH]c5ccccc45)c3)cc2C(F)(F)F)CC1 | 10.4 µM | 1.27 µM
52 | COc1ccccc1NS(=O)(=O)c1cccc(-n2c(O)c(C=Nc3ccccc3C(=O)O)c3ccccc3c2=O)c1 | 37.1 µM | 5.54 µM
53 | CC(=O)Oc1c(C(=O)c2nnc(C)o2)c(=O)n(Cc2ccccc2)c2ccccc12 | 14.9 µM | 2.36 µM
54 | O=C(N/N=C/c1ccccc1)c1[nH]c2ccc(Br)cc2c1-c1ccccc1 | 40.6 µM | 6.11 µM
55 | C=CCN(CC=C)c1ncnc2[nH]ncc12 | > 79 µM (inactive) | 1.24 µM
56 | Nc1ncnc(NCc2ccc(F)cc2)c1[N+](=O)[O-] | > 79 µM (inactive) | 3.33 µM
57 | Cc1ccccc1C(=O)N1CCN(c2ccc(NC(=O)CSc3ccc(Cl)cc3)cc2)CC1 | > 79 µM (inactive) | 0.879 µM
58 | COc1ccc(-c2cncnc2-c2ccc(OC)cc2O)cc1 | > 79 µM (inactive) | 4.39 µM
59 | O=C1Cc2c([nH]c3ccc(Br)cc23)-c2ccccc2N1 | 16.4 µM | 3.75 µM
60 | CC(=O)c1cccc(NC(=O)Nc2cccnc2)c1 | 40.3 µM | 0.608 µM
